According to ChEMBL document CHEMBL1201862, “PubChem BioAssay data set” (2004):
Calls of active or inactive are those of the source.

Legend:
[1] = target: G-protein coupled receptor 55 (Homo sapiens, UniProt Q9Y2T6); test: inhibition of LPI-stimulated GPR55 beta-arrestin translocation – imaging, U2OS, beta-arrestin-GFP, LPI agonist, primary screen (AID 2013); type: functional;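 further: antagonist potency measured as reduced agonist-driven arrestin aggregation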
[2] = target: Potassium voltage-gated channel subfamily KQT member 2 (Rattus norvegicus, UniProt O88943); test: blockers of KCNQ2 channel current – cell-based, automated electrophysiology, set II, rat KCNQ2, dose response (AID 588637); type: functional
CHO = CHO cell viability loss, potency – luminescence, cytotoxicity control for TLR9-MyD88 binding inhibitor project, dose response (AID 588339); type: functional, cell-based, hamster; settings: Cricetulus griseus;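 further: CHO cells stably coexpressing TLR9 and MyD88 fusions from primary screen; compound exposure lasted 48 hours before viability readout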
[3] = target: Endoplasmic reticulum aminopeptidase 1 (Homo sapiens, UniProt Q9NZ08); test: inhibition of human ERAP1 enzyme activity – biochemical, cherry-pick, set 2, plate reader, dose response (AID 743314)
Sequence of Endoplasmic reticulum aminopeptidase 1 (Q9NZ08 whole entry): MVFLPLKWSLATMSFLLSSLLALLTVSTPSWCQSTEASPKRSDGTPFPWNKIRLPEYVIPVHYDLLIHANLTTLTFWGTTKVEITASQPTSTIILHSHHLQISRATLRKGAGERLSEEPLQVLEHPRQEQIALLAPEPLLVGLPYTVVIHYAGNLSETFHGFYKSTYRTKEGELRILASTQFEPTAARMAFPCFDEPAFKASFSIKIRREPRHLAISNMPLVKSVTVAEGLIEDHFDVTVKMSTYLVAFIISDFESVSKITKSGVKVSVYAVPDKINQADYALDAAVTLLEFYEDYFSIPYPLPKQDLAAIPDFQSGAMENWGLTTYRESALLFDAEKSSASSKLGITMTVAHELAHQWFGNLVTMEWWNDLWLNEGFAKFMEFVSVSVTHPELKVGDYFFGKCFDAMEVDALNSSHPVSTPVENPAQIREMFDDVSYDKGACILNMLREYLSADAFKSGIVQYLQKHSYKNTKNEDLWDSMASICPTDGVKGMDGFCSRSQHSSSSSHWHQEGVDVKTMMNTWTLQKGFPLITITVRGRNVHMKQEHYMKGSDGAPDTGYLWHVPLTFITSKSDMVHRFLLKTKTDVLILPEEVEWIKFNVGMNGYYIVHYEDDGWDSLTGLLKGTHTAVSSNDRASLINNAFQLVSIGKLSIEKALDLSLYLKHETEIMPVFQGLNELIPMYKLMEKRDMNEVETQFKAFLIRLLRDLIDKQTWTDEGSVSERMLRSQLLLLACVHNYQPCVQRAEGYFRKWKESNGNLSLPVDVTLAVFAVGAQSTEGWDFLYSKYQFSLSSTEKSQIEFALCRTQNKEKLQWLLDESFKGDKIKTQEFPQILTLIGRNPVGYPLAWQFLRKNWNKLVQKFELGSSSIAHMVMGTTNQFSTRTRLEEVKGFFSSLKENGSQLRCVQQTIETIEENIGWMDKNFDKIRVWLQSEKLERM

[4] = target: Luciferin 4-monooxygenase (Photinus pyralis, UniProt P08659); test: inhibition of purified Photinus pyralis luciferase – biochemical, luminescence, dose response (AID 1891)
Beta Lactamase = Beta Lactamase (Pseudomonas aeruginosa, UniProt Q932Y6); test: BLA reporter interference, concentration series – BLA reporter cells, FRET fluorescence, artefact control for TLR9-MyD88 binding inhibitor project, dose response (AID 588341); type: cell-based;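 further: cell based assay in CHO-K1 cells stably expressing beta-lactamase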
Sequence of Beta Lactamase (Q932Y6 whole entry): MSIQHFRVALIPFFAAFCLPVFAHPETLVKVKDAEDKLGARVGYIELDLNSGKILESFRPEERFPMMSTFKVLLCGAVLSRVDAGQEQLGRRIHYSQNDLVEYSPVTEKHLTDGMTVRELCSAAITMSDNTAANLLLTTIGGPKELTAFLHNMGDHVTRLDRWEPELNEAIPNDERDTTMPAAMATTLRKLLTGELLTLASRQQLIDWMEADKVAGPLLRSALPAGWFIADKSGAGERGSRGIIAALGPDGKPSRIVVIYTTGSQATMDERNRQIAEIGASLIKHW

[5] = Luminescence Cell-Based Dose Confirmation HTS to Identify Inhibitors of Platelet Dense Granule Release. [Related pubchem assays: 1663 (Primary HTS), 1678 (Summary of Project)]; type: functional
[6] = target: T1, Histone-lysine N-methyltransferase NSD2 (Homo sapiens, UniProt O96028); type: biochemical
T1 sequence (O96028 whole entry): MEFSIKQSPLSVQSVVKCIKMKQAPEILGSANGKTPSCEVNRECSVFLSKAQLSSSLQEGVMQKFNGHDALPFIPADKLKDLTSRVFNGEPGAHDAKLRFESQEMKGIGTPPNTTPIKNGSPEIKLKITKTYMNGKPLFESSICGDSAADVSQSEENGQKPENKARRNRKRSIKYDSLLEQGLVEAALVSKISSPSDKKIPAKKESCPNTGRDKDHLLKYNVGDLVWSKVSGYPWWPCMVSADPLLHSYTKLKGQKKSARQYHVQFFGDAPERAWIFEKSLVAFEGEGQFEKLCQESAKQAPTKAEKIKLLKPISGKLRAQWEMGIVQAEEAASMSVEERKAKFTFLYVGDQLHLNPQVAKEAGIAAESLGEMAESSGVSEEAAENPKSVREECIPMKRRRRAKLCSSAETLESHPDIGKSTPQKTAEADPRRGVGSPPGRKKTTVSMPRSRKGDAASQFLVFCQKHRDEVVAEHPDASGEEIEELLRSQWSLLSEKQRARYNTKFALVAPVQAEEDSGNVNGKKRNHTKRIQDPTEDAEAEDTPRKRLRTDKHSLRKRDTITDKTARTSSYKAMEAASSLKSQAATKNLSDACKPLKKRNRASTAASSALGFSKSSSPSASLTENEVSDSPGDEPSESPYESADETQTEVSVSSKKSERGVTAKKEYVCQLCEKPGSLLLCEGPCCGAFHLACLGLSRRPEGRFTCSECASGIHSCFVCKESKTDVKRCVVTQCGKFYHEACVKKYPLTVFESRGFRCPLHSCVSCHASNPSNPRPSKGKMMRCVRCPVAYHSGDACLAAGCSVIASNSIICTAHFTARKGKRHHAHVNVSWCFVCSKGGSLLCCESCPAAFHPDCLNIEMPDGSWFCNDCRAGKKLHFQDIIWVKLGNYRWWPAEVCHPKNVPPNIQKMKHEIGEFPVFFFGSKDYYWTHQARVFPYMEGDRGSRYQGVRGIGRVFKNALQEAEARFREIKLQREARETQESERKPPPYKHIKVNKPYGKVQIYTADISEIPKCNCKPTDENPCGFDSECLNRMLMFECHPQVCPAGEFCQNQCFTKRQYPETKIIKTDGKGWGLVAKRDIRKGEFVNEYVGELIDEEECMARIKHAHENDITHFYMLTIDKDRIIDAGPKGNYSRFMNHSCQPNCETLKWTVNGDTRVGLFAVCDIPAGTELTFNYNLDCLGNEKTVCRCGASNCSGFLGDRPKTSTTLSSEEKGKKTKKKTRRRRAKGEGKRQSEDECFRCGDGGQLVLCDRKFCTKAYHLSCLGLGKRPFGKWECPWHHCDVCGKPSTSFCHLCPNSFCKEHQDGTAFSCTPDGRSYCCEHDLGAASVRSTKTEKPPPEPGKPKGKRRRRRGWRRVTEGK

[7] = target: Ras and Rab interactor 1/Tyrosine-protein kinase ABL1 (Homo sapiens, UniProt P00519+Q13671); type: functional;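 further: biochemical TR-FRET dose-response test measuring inhibition of binding between Rin1 and Abl proteins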
Sequence of Ras and Rab interactor 1/Tyrosine-protein kinase ABL1 (P00519 whole entry): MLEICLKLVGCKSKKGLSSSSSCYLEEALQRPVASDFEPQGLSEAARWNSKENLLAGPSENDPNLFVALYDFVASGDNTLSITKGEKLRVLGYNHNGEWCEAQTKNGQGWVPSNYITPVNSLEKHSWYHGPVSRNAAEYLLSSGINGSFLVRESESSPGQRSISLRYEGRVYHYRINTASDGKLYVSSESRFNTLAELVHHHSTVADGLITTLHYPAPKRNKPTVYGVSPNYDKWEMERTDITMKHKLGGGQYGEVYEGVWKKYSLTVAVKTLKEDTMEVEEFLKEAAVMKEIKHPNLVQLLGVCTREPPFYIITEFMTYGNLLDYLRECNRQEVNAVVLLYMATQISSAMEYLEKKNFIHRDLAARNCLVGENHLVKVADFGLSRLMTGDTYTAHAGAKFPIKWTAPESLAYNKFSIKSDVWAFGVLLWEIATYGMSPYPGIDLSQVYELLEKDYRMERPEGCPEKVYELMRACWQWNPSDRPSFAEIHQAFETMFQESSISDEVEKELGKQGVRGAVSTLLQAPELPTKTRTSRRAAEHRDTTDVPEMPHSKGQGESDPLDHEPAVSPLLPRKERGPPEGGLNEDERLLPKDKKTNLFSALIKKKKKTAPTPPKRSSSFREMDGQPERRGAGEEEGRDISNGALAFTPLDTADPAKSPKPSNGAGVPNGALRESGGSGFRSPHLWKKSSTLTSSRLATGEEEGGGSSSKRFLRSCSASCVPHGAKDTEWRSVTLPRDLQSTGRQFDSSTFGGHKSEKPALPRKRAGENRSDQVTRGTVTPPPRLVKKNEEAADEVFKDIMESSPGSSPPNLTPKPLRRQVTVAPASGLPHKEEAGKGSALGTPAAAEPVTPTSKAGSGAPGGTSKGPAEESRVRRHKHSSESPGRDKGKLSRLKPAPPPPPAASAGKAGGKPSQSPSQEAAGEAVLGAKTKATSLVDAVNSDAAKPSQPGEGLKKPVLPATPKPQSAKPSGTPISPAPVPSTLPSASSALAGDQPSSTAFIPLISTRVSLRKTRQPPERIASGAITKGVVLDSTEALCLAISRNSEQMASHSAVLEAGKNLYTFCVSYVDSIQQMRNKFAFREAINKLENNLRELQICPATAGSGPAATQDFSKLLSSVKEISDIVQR
Sequence of Ras and Rab interactor 1/Tyrosine-protein kinase ABL1 (Q13671 whole entry): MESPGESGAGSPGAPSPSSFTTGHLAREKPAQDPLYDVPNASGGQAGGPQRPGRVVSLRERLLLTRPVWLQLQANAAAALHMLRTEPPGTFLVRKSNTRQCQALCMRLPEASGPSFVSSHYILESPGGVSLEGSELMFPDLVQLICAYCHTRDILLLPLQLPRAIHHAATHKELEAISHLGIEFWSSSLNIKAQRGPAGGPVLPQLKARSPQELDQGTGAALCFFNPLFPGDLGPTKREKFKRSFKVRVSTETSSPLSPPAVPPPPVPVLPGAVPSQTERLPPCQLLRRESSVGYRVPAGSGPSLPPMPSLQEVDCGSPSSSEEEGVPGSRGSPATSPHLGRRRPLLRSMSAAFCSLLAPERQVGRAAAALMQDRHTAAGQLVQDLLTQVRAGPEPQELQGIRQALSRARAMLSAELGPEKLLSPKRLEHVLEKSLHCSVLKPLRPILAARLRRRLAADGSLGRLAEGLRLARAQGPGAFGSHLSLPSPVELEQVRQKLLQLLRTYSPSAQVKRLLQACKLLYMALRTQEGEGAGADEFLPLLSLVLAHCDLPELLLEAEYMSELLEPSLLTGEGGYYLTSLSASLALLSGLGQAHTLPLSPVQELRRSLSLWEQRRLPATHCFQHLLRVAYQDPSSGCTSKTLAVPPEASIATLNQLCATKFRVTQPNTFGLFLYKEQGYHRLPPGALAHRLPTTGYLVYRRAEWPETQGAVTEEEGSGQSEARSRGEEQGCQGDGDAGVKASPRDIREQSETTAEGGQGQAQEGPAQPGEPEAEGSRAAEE

Nonstructural protein 1 = Nonstructural protein 1 (Influenza A virus, UniProt Q194T2); type: functional, Influenza A virus (A/California/07/2009(H1N1))
Sequence of Nonstructural protein 1 (Q194T2 whole entry): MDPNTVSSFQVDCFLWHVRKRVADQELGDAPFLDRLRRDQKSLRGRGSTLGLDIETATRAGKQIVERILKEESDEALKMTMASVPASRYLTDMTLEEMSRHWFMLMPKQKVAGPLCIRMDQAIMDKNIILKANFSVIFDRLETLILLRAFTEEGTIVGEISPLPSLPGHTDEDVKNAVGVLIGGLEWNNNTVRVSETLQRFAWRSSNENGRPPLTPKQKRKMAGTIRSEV

Insulin-degrading enzyme [8] = target: T2, Insulin-degrading enzyme (Homo sapiens, UniProt P14735); test: cellular IDE activation of Abeta substrate cleavage – fluorescence polarization, HEK cells, dose response (AID 588439); type: functional, cell-based
T2 sequence (P14735 whole entry): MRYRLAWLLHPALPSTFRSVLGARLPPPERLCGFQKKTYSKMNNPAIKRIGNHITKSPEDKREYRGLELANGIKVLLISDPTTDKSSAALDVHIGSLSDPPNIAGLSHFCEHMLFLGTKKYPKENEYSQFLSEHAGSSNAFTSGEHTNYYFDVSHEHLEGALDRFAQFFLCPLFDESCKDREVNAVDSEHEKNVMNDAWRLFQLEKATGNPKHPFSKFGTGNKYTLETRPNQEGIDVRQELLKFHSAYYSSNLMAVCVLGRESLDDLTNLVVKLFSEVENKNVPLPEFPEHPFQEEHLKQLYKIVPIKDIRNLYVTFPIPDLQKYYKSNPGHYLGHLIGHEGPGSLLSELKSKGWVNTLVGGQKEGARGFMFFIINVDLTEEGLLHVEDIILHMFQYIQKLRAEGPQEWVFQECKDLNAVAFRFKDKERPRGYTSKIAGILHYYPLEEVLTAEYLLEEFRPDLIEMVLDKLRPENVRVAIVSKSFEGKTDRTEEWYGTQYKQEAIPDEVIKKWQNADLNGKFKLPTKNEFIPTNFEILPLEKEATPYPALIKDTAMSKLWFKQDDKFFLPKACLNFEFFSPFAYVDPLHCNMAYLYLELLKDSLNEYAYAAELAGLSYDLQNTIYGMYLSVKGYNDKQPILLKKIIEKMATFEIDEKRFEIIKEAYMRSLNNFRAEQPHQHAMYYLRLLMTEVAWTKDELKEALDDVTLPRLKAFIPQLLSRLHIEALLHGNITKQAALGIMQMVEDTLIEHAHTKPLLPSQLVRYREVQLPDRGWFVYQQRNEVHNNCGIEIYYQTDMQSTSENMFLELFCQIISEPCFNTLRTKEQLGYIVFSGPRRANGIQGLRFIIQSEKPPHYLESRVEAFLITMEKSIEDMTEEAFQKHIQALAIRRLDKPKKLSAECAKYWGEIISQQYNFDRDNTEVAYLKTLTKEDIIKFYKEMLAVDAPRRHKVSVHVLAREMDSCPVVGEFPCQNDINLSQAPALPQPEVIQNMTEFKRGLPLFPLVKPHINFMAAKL

Insulin-degrading enzyme [9] = target: T2, Insulin-degrading enzyme; test: recombinant IDE activation, cell-free – biochemical, fluorescence polarization, counter-screen for IDE activator project, dose response (AID 588681)
Prothrombin = Prothrombin (Bos taurus, UniProt P00735); test: thrombin protease inhibitors – biochemical, fluorescence polarization, uHTS hits, dose response (AID 602369); type: functional
[10] = Trypanosoma cruzi growth suppression in host cells – NIH3T3 host cells, beta-gal luminescence, confirmation (AID 2044); type: functional, cell-based;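 further: intracellular parasites grown in NIH/3T3 mouse fibroblasts as host cells; luminescent beta-galactosidase reporter signal from transgenic T. cruzi replicating inside host cells; inhibitors lower the luminescence signal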
[11] = target: 26S proteasome non-ATPase regulatory subunit 14 (Homo sapiens, UniProt O00487); test: inhibition of proteasome subunit RPN11 – biochemical, fluorescence polarization, uHTS hits, confirmation (AID 602368); type: functional
[12] = target: T3, DNA repair protein RAD52 homolog (Homo sapiens, UniProt P43351); type: functional, biochemical
T3 sequence (P43351 whole entry): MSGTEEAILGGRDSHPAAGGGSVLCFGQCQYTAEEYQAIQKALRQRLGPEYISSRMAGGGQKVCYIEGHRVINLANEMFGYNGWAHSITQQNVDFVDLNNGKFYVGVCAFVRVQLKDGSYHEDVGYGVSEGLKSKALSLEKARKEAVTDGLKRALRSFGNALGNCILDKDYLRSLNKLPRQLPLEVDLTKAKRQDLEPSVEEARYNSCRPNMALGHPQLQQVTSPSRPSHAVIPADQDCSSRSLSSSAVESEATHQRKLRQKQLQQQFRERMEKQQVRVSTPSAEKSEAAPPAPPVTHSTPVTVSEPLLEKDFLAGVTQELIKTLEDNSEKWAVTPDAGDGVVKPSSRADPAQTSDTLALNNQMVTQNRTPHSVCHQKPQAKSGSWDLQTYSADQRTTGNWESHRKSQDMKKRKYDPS

INS1 = test: INS-1E survival protection against cytokine death – cell-based, luminescence, retest, dose response (AID 449756); type: functional; settings: Rattus norvegicus;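 further: cell death triggered by IL-1 beta plus TNF-alpha plus IFN-gamma mixture; protective hits raise ATP signal compared with cytokine alone wells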
HEK293 [13] = test: cells; settings: Homo sapiens
[14] = target: T4, Microphthalmia-associated transcription factor (Homo sapiens, UniProt O75030); test: reducers of TRPM1 reporter luminescence, concentration series – cell-based, SK-MEL-5, cherry-picked, set 3, MITF inhibitor project, dose response (AID 493073); type: functional;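 further: SK-MEL-5 melanoma cells with luciferase driven by the MITF target TRPM1 promoter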
T4 sequence (O75030 whole entry): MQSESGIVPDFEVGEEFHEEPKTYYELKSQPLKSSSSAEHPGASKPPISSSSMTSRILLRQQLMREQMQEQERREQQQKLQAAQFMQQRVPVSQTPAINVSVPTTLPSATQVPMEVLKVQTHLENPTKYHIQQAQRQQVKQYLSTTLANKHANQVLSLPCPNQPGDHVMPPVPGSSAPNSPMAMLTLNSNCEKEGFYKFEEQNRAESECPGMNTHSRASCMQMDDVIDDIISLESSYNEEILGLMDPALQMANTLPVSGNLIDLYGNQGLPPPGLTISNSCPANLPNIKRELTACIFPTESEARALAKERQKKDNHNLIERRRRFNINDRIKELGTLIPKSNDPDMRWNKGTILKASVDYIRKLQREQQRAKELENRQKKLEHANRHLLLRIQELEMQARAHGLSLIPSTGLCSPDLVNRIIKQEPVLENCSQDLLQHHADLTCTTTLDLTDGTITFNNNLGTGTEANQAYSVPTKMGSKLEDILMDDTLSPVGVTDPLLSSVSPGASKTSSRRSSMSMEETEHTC

A-375 = test: proliferation inhibition in MITF-low A375 cells – cell-based, cherry-pick samples, set 2, counter-screen for MITF modulator project, dose response (AID 540335); type: functional; settings: Homo sapiens
[15] = target: DNA (cytosine-5)-methyltransferase 1 (Homo sapiens, UniProt P26358); test: inhibition of DNA methylation by DNMT1 – biochemical, fluorescent molecular beacon, confirmation (AID 602386); type: functional
Sequence of DNA (cytosine-5)-methyltransferase 1 (P26358 whole entry): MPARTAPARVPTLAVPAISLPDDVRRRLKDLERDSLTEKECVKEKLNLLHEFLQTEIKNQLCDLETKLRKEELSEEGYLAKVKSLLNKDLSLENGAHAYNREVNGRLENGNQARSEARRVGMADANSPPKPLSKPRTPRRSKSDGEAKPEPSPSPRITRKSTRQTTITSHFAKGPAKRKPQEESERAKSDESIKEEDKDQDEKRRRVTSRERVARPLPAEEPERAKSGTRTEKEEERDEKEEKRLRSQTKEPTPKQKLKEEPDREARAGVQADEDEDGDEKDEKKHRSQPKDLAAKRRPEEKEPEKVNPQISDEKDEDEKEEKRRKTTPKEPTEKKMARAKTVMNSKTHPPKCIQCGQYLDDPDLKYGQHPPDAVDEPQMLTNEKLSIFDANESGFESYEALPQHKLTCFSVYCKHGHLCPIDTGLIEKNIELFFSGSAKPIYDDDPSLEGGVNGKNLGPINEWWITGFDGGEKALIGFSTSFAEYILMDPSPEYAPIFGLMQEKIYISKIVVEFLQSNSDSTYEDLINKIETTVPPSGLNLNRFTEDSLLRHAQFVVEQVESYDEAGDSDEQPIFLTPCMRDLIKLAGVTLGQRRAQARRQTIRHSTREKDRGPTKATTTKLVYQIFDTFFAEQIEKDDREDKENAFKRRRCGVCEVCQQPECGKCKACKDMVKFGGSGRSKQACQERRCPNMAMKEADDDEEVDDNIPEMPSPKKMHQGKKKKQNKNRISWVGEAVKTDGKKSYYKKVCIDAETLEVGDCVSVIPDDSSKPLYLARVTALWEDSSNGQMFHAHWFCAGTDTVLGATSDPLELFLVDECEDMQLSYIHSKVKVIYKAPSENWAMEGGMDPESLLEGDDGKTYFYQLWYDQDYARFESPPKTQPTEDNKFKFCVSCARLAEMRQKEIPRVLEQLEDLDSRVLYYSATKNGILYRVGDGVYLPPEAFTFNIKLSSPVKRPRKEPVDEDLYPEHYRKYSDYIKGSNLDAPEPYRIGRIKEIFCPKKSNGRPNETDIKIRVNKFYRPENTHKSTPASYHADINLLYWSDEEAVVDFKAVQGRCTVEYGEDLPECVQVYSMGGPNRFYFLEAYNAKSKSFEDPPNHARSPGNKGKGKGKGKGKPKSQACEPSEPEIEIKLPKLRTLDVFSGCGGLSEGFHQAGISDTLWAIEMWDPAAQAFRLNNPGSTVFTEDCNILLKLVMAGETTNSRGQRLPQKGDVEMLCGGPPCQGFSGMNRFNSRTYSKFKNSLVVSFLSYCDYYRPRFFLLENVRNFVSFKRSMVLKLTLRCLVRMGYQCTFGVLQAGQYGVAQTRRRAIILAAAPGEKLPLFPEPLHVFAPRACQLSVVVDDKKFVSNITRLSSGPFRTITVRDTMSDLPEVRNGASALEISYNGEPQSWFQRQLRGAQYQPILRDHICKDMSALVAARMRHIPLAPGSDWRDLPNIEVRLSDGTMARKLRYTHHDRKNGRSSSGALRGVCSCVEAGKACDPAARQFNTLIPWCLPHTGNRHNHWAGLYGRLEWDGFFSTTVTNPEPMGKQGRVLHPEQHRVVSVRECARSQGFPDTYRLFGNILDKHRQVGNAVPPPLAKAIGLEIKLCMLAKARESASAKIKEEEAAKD

[16] = target: 72 kDa type IV collagenase (Homo sapiens, UniProt P08253); test: Dose Response validation of uHTS RPN11 inhibitor hits using a MMP-2 Fluorescence assay.; type: functional
[17] = target: T5, Oxysterols receptor LXR-beta (Homo sapiens, UniProt P55055); type: functional, cell-based;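 further: Cell-based luminescence dose-response assay of agonist activity at LXR, run as a confirmatory counterscreen to a daf-12 agonist screen; HEK293 cells with Gal4-LXR fusion and GAL4-driven luciferase reporter; agonist potency from rising luciferase signal of a Gal4-LXR reporter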
T5 sequence (P55055 whole entry): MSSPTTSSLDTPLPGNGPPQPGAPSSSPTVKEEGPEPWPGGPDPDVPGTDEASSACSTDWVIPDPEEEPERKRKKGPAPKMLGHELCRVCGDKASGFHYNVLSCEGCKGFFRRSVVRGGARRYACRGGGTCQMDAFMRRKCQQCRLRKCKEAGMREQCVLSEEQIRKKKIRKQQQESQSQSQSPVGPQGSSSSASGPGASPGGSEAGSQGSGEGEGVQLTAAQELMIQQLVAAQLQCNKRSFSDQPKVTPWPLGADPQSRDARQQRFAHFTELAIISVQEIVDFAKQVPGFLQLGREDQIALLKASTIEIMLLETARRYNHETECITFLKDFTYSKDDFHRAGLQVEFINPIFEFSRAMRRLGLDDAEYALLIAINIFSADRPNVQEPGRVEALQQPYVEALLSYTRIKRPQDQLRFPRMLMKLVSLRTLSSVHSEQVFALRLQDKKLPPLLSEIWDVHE

HEK293 [18] = test: cells; settings: Homo sapiens; remark: listed apart in the source
cells [19] = test: cells
cells [20] = type: functional
[21] = A Cell Based Secondary Assay to Explore Cytotoxicity in THP-1 Cells of Compounds that Modulate Mycobacterium tuberculosis in Media Containing Glycerol versus Media without Glycerol (2).; type: functional

COc1ccc(Cl)cc1C(=O)NC(=S)Nc1ccccc1N1CCOCC1
IC50 [1]: 0.825 µM (active)
IC50 [2]: 5.98 µM (active)

COc1ccc(-c2cc3ccc(O)cc3oc2=O)cc1OC
IC50 (CHO): > 49.8 µM (inactive)
AC50 [3]: 3.21 µM (active)
EC50 [4]: 1.23 µM (active)
IC50 (Beta Lactamase): 5.23 µM (active)
EC50 [5]: 0.335 µM (active)

Cc1[nH]c(=O)[nH]c1C(=O)CCCCC(=O)O
AC50 [6]: 10.2 µM (active)
IC50 [7]: 0.0174 µM (active)
IC50 (Nonstructural protein 1): 2.14 µM (active)
EC50 (Insulin-degrading enzyme [8]): 12.2 µM (inactive)
EC50 (Insulin-degrading enzyme [9]): 16.9 µM (inactive)

Cc1cc(C)c2c(N)c3cccc(C)c3nc2n1
IC50 (Prothrombin): > 100 µM (inactive)
EC50 [10]: 1.27 µM (active)
IC50 [11]: 13.1 µM (active)
AC50 [12]: 2.24 µM (active)
AC50 (INS1): 1.62 µM (active)
EC50 (HEK293 [13]): > 59.6 µM (inactive)
AC50 [14]: 3.21 µM (active)
AC50 (A-375): 3.39 µM (active)
IC50 [15]: > 99 µM (inactive)
IC50 [16]: > 100 µM (inactive)
EC50 [17]: > 67.5 µM (inactive)
EC50 (HEK293 [18]): > 2.21 µM (active)
EC50 (cells [19]): > 67.5 µM (inactive)

CC(=O)Oc1cccc(N2C(=O)c3cccc4c([N+](=O)[O-])ccc(c34)C2=O)c1
IC50 (CHO): 5.26 µM (active)
IC50 (Beta Lactamase): 4.5 µM (active)

CCOC(=O)COn1c2c(c3c4no[n+]([O-])c4ccc31)CCCC2
IC50 (cells [20]): 5.49 µM (active)
CC50 [21]: > 100 µM (active)
